Results on three compounds are retold here after PubChem BioAssay AID652226 (The Scripps Research Institute Molecular Screening Center, 2013).

The source made the active and inactive calls.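 The calls were made as follows: active = compounds blocking PP5 with IC50 under 10 µM; inactive = the rest.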

Chain of Serine/threonine-protein phosphatase 5 (Homo sapiens) (P53041 whole entry, looked up): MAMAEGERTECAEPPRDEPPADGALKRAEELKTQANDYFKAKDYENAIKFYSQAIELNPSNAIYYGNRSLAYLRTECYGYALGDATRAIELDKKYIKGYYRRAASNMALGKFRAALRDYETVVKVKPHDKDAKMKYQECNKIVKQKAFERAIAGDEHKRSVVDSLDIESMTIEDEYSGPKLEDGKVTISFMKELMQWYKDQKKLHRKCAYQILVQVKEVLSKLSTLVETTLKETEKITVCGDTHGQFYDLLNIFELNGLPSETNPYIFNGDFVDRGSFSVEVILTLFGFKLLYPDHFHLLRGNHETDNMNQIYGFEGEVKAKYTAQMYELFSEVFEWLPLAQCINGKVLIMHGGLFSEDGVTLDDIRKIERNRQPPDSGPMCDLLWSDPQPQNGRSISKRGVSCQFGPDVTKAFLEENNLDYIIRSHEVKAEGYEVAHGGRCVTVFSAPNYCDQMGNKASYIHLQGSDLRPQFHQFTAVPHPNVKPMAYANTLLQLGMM

This experiment concerns the target Serine/threonine-protein phosphatase 5 (Homo sapiens) (UniProt P53041). The experiment is described as follows: PP5 phosphatase inhibitor potency, late-stage follow-up, selectivity assay for PP1 inhibitor project, biochemical, fluorescence, OMFP substrate, set 1 (AID 652226). As to conditions: purified PP5c, OMFP dephosphorylation.
With `CN1CCN(C(c2ccccn2)c2ccc3cccnc3c2O)CC1` (stereo not drawn), the IC50 entry was “inactive”. On to `Oc1c(Cc2ccccn2)ccc2cccnc12`, for which the IC50 result was “inactive”.

Consider `Oc1c(C(c2ccccn2)N2CCOCC2)cc(Cl)c2cccnc12` (stereo not drawn), for which the IC50 entry is “inactive”.
